In US20140364483A1, “ALTERNATIVE SPLICING VARIANTS OF GENES ASSOCIATED WITH PROSTATE CANCER RISK AND SURVIVAL” (The George Washington University, priority 2011, published 2014):
d = 2'-deoxy (DNA); r = 2'-OH (RNA); {P} = phosphate

Assays:
Type in all cases: cell-based, human
VCaP cells [1] = experiment: Cell proliferation after siRNA knockdown of splice variants; conditions: CA PCa cell line VCaP
Excerpt: (§1) The predominant expression of the L variant and very little to no expression of the S variant in the CA PCa cell line is consistent with the CA patient samples (see PIK3CD in FIG. 4). SiRNA-mediated knockdown of the L variant in VCaP cells leads to a decrease in Matrigel invasion and a decrease in proliferation (FIG. 7A). By comparison, the AA PCa cell line MDA PCa 2b expresses both an L and S variant, and knockdown of the L variant leads to an increase in Matrigel invasion and an increase in proliferation (FIG. 7A). Since VCaP cells express very little to no S variant, targeted siRNA-mediated knockdown of this variant leads to no change in Matrigel invasion and proliferation (FIG. 7B). In contrast, targeted knockdown of the S variant in MDA PCa 2b cells leads to decreased Matrigel invasion and decreased proliferation (since the S variant is found almost exclusively in AA patient samples, it is referred to as the ‘AA variant’) (FIG. 7B). […] Analogous findings were obtained in MDA PCa 2b cells when the ratio of the ‘AA variant’ (S or b isoform) was increased over the ‘CA variant’ (L or an isoform) for the FGFR3, TSC2.
(§2) For RASGRP2, the long variant (with exon 10) is common to both AA and CA patients, whereas the short variant (without exon 10) is unique to AA. Targeted knockdown of the long splicing variant in VCaP cells reduced Matrigel invasion and an increase in proliferation (FIG. 8).

MDA PCa 2b cells [2] = experiment: as above; conditions: AA PCa cell line MDA PCa 2b
Excerpt: as §1, §2

VCaP cells [3] = experiment: Matrigel invasion after siRNA knockdown of splice variants; conditions: CA PCa cell line VCaP
Excerpt: as §1, §2

MDA PCa 2b cells [4] = experiment: as above; conditions: AA PCa cell line MDA PCa 2b
Excerpt: as §1, §2

AKT pathway = AKT pathway phosphorylation after knockdown of PIK3CD long variant
Excerpt: Activation of AKT is known to promote cell growth and mRNA translation (FIG. 9a). When the expression of PIK3CD “long” variant is knocked down by siRNA targeting of Exon 23 in the VCaP cell line, which only expresses the long variant, there is a decrease of phosphorylation of AKT, compared to nonsense siRNA control, and also decrease of phosphorylation of downstream signaling proteins mTOR and S6 (FIG. 9b). […] In other words, increasing S/L variants proportion in MDA PCa 2b cells activates the AKT pathways.

[5] = VCaP cell line, compared to nonsense siRNA control

siPIK3CD-S: siRNA duplex SEQ ID Nos. 12 and 13, sense 5′ UGAGGGAGGCCCUGGAUCGAdTdT 3′; knocks down PIK3CD short variant (antisense UCGAUCCAGGGCCUCCCUCA; sense: RNA, 3' dTdT, backbone not given here; antisense: RNA, 5' {P}, 3' dTdT, backbone not given here)
proliferation (VCaP cells [1]): no change
proliferation (MDA PCa 2b cells [2]): decreased
Matrigel invasion (VCaP cells [3]): no change
Matrigel invasion (MDA PCa 2b cells [4]): decreased

siPIK3CD-ex23: siRNA duplex SEQ ID Nos. 4 and 5, sense 5′ CCAACAUCCAACUCAACAAdTdT 3′; knocks down PIK3CD long variant (antisense UUGUUGAGUUGGAUGUUGG; sense: RNA, 3' dTdT, backbone not given here; antisense: RNA, 5' {P}, 3' dTdT, backbone not given here)
proliferation (VCaP cells [1]): decrease
proliferation (MDA PCa 2b cells [2]): increase
AKT phosphorylation, both on Thr308 and Ser473 (AKT pathway; MDA PCa 2b cells): markedly increases
phosphorylation of mTOR and S6 (AKT pathway; MDA PCa 2b cells): increases
phosphorylation of AKT (AKT pathway; [5]): decrease
phosphorylation of downstream signaling proteins mTOR and S6 (AKT pathway; [5]): decrease
Matrigel invasion (VCaP cells [3]): decrease
Matrigel invasion (MDA PCa 2b cells [4]): increase

siRNA targeting RASGRP2 exon 10: siRNA duplex SEQ ID Nos. 40 and 41, sense 5′ GUGGAGCACAUCGAGAAGAdTdT 3′; long variant contains exon 10 (sense GUGGAGCACAUCGAGAAGATT; antisense UCUUCUCGAUGUGCUCCAC; sense: sugars from the 5' end r19 d2, backbone not given here; antisense: chemistry not given here)
proliferation (VCaP cells [1]): increase
proliferation (MDA PCa 2b cells [2]): opposite effect
Matrigel invasion (VCaP cells [3]): reduced
Matrigel invasion (MDA PCa 2b cells [4]): opposite effect
